In ChEMBL document CHEMBL1201862, “PubChem BioAssay data set” (2004):
Active and inactive are the calls of the source.

Columns and labels:
[1] = target: 26S proteasome non-ATPase regulatory subunit 14 (Homo sapiens, UniProt O00487); test: inhibition of proteasome subunit RPN11 – biochemical, fluorescence polarization, uHTS hits, confirmation (AID 602368); format: functional
[2] = target: T1, Caspase-3 (Homo sapiens, UniProt P42574); format: functional;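 also: Dose-response selectivity test against caspase-3 for candidate inhibitors of sentrin-specific proteases (SENPs)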
T1 sequence (P42574 whole entry): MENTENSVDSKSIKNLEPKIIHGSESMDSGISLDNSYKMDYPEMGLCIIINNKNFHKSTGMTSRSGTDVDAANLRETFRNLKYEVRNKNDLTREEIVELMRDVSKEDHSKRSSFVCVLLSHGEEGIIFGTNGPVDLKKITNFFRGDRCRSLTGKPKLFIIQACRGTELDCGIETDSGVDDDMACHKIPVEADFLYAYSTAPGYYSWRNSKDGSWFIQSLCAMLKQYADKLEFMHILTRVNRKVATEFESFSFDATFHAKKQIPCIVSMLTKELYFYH

Chain of 26S proteasome non-ATPase regulatory subunit 14 (O00487 whole entry): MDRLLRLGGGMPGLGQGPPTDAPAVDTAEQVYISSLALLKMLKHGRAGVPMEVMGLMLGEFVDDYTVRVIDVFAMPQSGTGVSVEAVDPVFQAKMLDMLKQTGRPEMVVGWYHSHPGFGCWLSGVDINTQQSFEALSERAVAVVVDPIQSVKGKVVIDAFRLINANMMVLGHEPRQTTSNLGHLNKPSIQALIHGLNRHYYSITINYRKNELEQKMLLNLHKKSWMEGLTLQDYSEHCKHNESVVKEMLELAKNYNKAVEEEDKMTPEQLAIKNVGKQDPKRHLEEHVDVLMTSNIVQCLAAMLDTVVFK

IC50 [2]	Structure (SMILES)	IC50 [1]
	O=[N+]([O-])c1ccc(N/N=C/c2ccc[nH]2)cc1	8.96 µM (active)
65.8 µM (active)	CC(=O)N(/N=C1\Sc2ccccc2C1=O)c1cccc(C)c1	
